In patent US10815210B2, “Benzocyclobutane derivatives useful as dual SGLT1 / SGLT2 modulators” (Janssen Pharmaceutica NV, priority 2016, dated 2020):

Tests used:
[1] = biological target: T1, human SGLT2 (Homo sapiens, UniProt P31639); assay: SGLT2 assay: Na-dependent 14C-AMG uptake in CHO-K1 cells stably expressing human SGLT2; type: cell-based; details: for IC50: 500 μM AMG, 2 hours at 37° C.
T1 construct: expressed in transfected cells; host or cells: CHO-K1
T1 sequence (P31639 1-672): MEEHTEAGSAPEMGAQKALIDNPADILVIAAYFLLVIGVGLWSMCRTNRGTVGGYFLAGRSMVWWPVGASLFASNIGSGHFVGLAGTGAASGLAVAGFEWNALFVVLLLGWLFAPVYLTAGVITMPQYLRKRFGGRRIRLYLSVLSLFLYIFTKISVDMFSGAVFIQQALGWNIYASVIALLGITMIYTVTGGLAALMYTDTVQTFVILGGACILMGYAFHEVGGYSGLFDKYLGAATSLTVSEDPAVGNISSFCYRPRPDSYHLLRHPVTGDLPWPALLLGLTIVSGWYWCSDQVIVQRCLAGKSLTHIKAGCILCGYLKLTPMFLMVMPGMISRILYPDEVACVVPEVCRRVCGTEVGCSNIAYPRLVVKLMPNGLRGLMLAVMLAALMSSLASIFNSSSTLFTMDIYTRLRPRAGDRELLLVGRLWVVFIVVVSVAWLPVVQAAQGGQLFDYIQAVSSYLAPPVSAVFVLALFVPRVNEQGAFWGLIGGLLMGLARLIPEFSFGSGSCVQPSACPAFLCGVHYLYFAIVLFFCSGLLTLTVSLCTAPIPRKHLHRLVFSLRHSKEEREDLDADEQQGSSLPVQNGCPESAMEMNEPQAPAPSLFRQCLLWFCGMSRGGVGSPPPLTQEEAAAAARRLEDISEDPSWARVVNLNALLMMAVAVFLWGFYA
In short: (§1)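 CHO-K1 cells stably expressing human SGLT1 or SGLT2, pretreated 24 h with 10 mM Na-butyrate, were exposed 10 min to compound (0.001-10 μM) in Na-containing HEPES/Tris buffer pH 7.4. Uptake of ^14C-AMG (500 μM final) ran 2 h at 37° C, then Na-dependent uptake was counted by scintillation.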

[2] = biological target: T2, human SGLT1 (Homo sapiens, UniProt P13866); assay: SGLT1 assay: Na-dependent 14C-AMG uptake in CHO-K1 cells stably expressing human SGLT1; type: cell-based; details: for IC50: 500 μM AMG, 2 hours at 37° C.
T2 construct: expressed in transfected cells; host or cells: CHO-K1
T2 sequence (P13866 1-664): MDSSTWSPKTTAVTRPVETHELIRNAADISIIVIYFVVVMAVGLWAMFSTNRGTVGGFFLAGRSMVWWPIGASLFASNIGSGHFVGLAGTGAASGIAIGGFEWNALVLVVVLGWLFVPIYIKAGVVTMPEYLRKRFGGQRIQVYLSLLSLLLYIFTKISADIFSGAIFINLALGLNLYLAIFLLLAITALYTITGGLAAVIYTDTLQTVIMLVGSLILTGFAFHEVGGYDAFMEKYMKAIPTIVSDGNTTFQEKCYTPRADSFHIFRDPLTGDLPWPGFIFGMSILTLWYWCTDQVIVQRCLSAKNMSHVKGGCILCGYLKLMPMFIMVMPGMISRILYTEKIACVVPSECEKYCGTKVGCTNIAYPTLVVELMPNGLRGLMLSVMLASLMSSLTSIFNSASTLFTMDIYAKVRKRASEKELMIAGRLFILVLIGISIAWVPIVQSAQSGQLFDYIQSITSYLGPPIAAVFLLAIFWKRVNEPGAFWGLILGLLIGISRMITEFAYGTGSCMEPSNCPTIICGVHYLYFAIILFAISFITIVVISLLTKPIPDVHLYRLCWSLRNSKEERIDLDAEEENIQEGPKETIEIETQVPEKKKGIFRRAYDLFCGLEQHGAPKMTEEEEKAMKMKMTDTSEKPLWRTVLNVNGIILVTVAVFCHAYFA
In short: as §1

Row | SMILES | IC50 [1] | IC50 [2] | inhibition at 0.03 µM [1] | inhibition at 0.3 µM [2]
1 | COc1cc(C)c(Cc2ccc3c(c2)CC3)cc1[C@@H]1O[C@H](CO)C(F)(F)[C@H](O)[C@H]1O [Compound 93, (2S,3R,4R,6R)-2-(5-(bicyclo[4.2.0]octa-1(6),2,4-trien-3-ylmethyl)-2-methoxy-4-methylphenyl)-5,5-difluoro-6-(hydroxymethyl)tetrahydro-2H-pyran-3,4-diol] | 3 nM | 95 nM | – | –
2 | OC[C@H]1O[C@@H](c2ccc(F)c(Cc3ccc4c(c3)CC4)c2)[C@H](O)[C@@H](O)[C@@H]1O [Compound 101] | – | – | 70% | 22%
3 | OC[C@H]1O[C@@H](c2ccc(Cl)c(Cc3ccc4c(c3)CC4)c2)[C@H](O)[C@@H](O)C1(F)F [Compound 106] | – | – | 26% | 41%
4 | CCOc1cc(OC)c(Cc2ccc3c(c2)CC3)cc1[C@@H]1O[C@H](CO)C(F)(F)[C@H](O)[C@H]1O [Compound 109] | 5 nM | 158 nM | – | –
5 | CCOc1cc(OC)c(Cc2ccc3c(c2)CC3)cc1[C@@H]1O[C@H](CO)[C@@H](O)[C@H](O)[C@H]1O [Compound 114] | 2 nM | 37 nM | – | –
6 | CCc1cc(OC2CC2)c([C@@H]2O[C@H](CO)[C@@H](O)[C@H](O)[C@H]2O)cc1Cc1ccc2c(c1)CC2 [Compound 116] | 2 nM | 13 nM | – | –
7 | OC[C@H]1O[C@@H](c2cc(Cc3ccc4c(c3)CC4)c(Cl)cc2OC2CC2)[C@H](O)[C@@H](O)[C@@H]1O [Compound 117] | 2 nM | 50 nM | – | –
8 | Cc1c(Cc2ccc3c(c2)CC3)cc([C@@H]2O[C@H](CO)[C@@H](O)[C@H](O)[C@H]2O)c(O)c1I [Compound 120] | 7 nM | 14 nM | – | –
9 | CCc1cc(OC(F)F)c([C@@H]2O[C@H](CO)[C@@H](O)[C@H](O)[C@H]2O)cc1Cc1ccc2c(c1)CC2 [Compound 122] | – | – | 55.5% | 53%

The remaining lines, values ahead:

Row | IC50 [1] | IC50 [2] | inhibition at 0.03 µM [1] | inhibition at 0.3 µM [2] | SMILES
10 | 2 nM | 14 nM | – | – | Cc1cc(O)c([C@@H]2O[C@H](CO)C(F)(F)[C@H](O)[C@H]2O)cc1Cc1ccc2c(c1)CC2 [Compound 92, (2S,3R,4R,6R)-2-(5-(bicyclo[4.2.0]octa-1(6),2,4-trien-3-ylmethyl)-2-hydroxy-4-methylphenyl)-5,5-difluoro-6-(hydroxymethyl)tetrahydro-2H-pyran-3,4-diol]
11 | 2 nM | 12 nM | – | – | OC[C@H]1O[C@@H](c2cc(Cc3ccc4c(c3)CC4)c(Cl)cc2O)[C@H](O)[C@@H](O)C1(F)F [Compound 102]
12 | 2 nM | 13 nM | – | – | COc1cc(Cl)c(Cc2ccc3c(c2)CC3)cc1[C@@H]1O[C@H](CO)C(F)(F)[C@H](O)[C@H]1O [Compound 103]
13 | 1 nM | 14 nM | – | – | CCOc1cc(Cl)c(Cc2ccc3c(c2)CC3)cc1[C@@H]1O[C@H](CO)C(F)(F)[C@H](O)[C@H]1O [Compound 104]
14 | 1 nM | 32 nM | – | – | CCOc1cc(CC)c(Cc2ccc3c(c2)CC3)cc1[C@@H]1O[C@H](CO)[C@@H](O)[C@H](O)[C@H]1O [Compound 105]
15 | 1 nM | 10 nM | – | – | COc1cc(O)c([C@@H]2O[C@H](CO)C(F)(F)[C@H](O)[C@H]2O)cc1Cc1ccc2c(c1)CC2 [Compound 107]
16 | 1 nM | 27 nM | – | – | COc1cc(OC)c([C@@H]2O[C@H](CO)C(F)(F)[C@H](O)[C@H]2O)cc1Cc1ccc2c(c1)CC2 [Compound 108]
17 | 2 nM | 24 nM | – | – | [2H]C([2H])([2H])Oc1cc(OC)c(Cc2ccc3c(c2)CC3)cc1[C@@H]1O[C@H](CO)[C@@H](O)[C@H](O)[C@H]1O [Compound 112]
18 | 1 nM | 84 nM | – | – | CCOc1cc(C)c(Cc2ccc3c(c2)CC3)cc1[C@@H]1O[C@H](CO)[C@@H](O)[C@H](O)[C@H]1O [Compound 113]
19 | 1 nM | 22 nM | – | – | CCOc1cc(Cl)c(Cc2ccc3c(c2)CC3)cc1[C@@H]1O[C@H](CO)[C@@H](O)[C@H](O)[C@H]1O [Compound 115]
20 | 1 nM | 22 nM | – | – | Cc1cc(OC2CC2)c([C@@H]2O[C@H](CO)[C@@H](O)[C@H](O)[C@H]2O)cc1Cc1ccc2c(c1)CC2 [Compound 118]
